From US20250064799A1, “ORAL FORMULATIONS OF LEVOSIMENDAN FOR TREATING PULMONARY HYPERTENSION WITH HEART FAILURE WITH PRESERVED EJECTION FRACTION” (Tenax Therapeutics, Inc., priority 2021, published 2025)

Tests used:
[1] = test system: subjects with pulmonary hypertension with heart failure and preserved ejection fraction; assay: TNX-LVO-05 safety review: treatment emergent adverse events; assay type: in vivo, human
Excerpt: This is the third safety review for Study Protocol No. TNX-LVO-05. This review a) summarizes treatment emergent adverse events (TEAEs), treatment emergent serious adverse events (TESAEs), discontinuations due to TEAEs, and b) provides an overall assessment of safety data.
As of 4 Nov. 2020, 36 subjects have been enrolled in this open-label study with levosimendan and 18 (−5; this number presents change versus previous Safety Review) are still active. Seven subjects (+3) withdrew due to AE, and eight (+2) subjects withdrew consent. One subject was withdrawn by investigator decision.

[2] = test system: Patient 019-002 with PH-HFpEF; assay: HELP Study 24-hour open label lead-in infusion, rest and exercise right heart catheterization, Patient 019-002; assay type: in vivo, human
Procedure: FIG. 3: Pulmonary Capillary Wedge Pressure (PCWP) of Patient […] of HELP Study.
During the HELP Study, as described in PCT International Application Publication No. WO 2021/126884, the entire contents of which are incorporated by reference, Patient 019-002 was administered empagliflozin shortly after beginning levosimendan therapy.
Specifically, Patient 019-002 had established PH-HFpEF and was initially enrolled into the HELP Trial. The diagnosis of PH-HFpEF was confirmed by rest and exercise right heart catheterization. […] The PCWP of 35 mmHg at rest increased with exercise to 55 mmHg at baseline. […] Thus, levosimendan produced a 40% fall in resting PCWP and a 33% fall in exercise PCWP. In addition, at baseline the CVP was 18 mmHg and increased to 30 mmHg with exercise. Following the 24 hours of i.v. levosimendan the CVP fell to 12 mmHg at rest and to 21 mmHg with exercise. Thus, levosimendan produced a 33% fall in resting CVP, and a 30% fall in CVP with exercise. Accordingly, the response of Patient 019-002 to levosimendan treatment was typical of other patients in the study in terms of improvements to their hemodynamic profile (FIG. 3).

[3] = test system: phosphodiesterase-3 (PDE3); conditions: in vitro; cited from earlier work
[4] = 24 hours of i.v. levosimendan vs baseline

For `C[C@@H]1CC(=O)NN=C1c1ccc(NN=C(C#N)C#N)cc1` [levosimendan], the TEAE arthralgia ([1]; of 36 enrolled) was 3 subjects, the TEAE asthenia ([1]; of 36 enrolled) was 3 subjects and the TEAE back pain ([1]; of 36 enrolled) was 3 subjects. For the same compound, the TEAE cardiac failure ([1]; of 36 enrolled) was 6 subjects, the TEAE dermatitis ([1]; of 36 enrolled) was 3 subjects and the “TEAE device infusion issues” value ([1]; of 36 enrolled) was 3 subjects. For the same compound, the TEAE dizziness ([1]; of 36 enrolled) was 8 subjects, the TEAE dyspnea ([1]; of 36 enrolled) was 8 subjects and the TEAE fluid overload ([1]; of 36 enrolled) was 3 subjects. The TEAE gout ([1]; of 36 enrolled) was 3 subjects, the TEAE headache ([1]; of 36 enrolled) was 5 subjects and the TEAE hemoptysis ([1]; of 36 enrolled) was 3 subjects. The TEAE hypokalemia ([1]; of 36 enrolled) was 7 subjects, the TEAE palpitations ([1]; of 36 enrolled) was 4 subjects and the TEAE pneumonia ([1]; of 36 enrolled) was 3 subjects. The “TEAE upper respiratory tract infection” value ([1]; of 36 enrolled) was 3 subjects, the “TEAE urinary tract infection” value ([1]; of 36 enrolled) was 3 subjects and the TEAE ventricular extrasystoles ([1]; of 36 enrolled) was 3 subjects. The TEAE weight increased ([1]; of 36 enrolled) was 3 subjects, the “drug-related TEAE device infusion issue” value ([1]; of 36 enrolled) was 3 subjects and the “drug-related TEAE headache” value ([1]; of 36 enrolled) was 2 subjects. The “drug-related TEAE palpitations” value ([1]; of 36 enrolled) was 2 subjects, the “drug-related TEAE urticaria” value ([1]; of 36 enrolled) was 2 subjects and the “drug-related TEAE ventricular extrasystoles” value ([1]; of 36 enrolled) was 2 subjects. For the same compound, the “subjects permanently discontinued study drug due to a TEAE” value ([1]; of 36 enrolled) was 5 subjects, the “subjects with TEAEs, SOC General disorders and administration site conditions” value ([1]; of 36 enrolled) was 15 subjects and the “subjects with TEAEs, SOC Nervous system disorders” value ([1]; of 36 enrolled) was 15 subjects. The TESAE asthenia ([1]; of 36 enrolled (5.6%)) was 2 subjects, the “TESAE cardiac failure congestive” value ([1]; of 36 enrolled (5.6%)) was 2 subjects and the TESAE pneumonia ([1]; of 36 enrolled (8.3%)) was 3 subjects. For the same compound, the “TESAEs, SOC Metabolism and nutrition disorders” value ([1]; of 36 enrolled (8.3%)) was 4 subjects, the “related TEAEs, SOC Nervous system disorders” value ([1]; of 36 enrolled (8.3%)) was 3 subjects and the “related TEAEs, SOC Respiratory, thoracic and mediastinal disorders” value ([1]; of 36 enrolled (8.3%)) was 3 subjects. For the same compound, the “related TEAEs, SOC Skin and subcutaneous tissue disorders” value ([1]; of 36 enrolled (8.3%)) was 3 subjects, the “related TEAEs, SOC cardiac disorders” value ([1]; of 36 enrolled (8.3%)) was 5 subjects and the TESAE cardiac failure ([1]; of 36 enrolled (11.1%)) was 4 subjects. For the same compound, the “related TEAEs, SOC Product issues” value ([1]; of 36 enrolled (11.4%)) was 4 subjects, the “TESAEs, SOC Infections and Infestations” value ([1]; of 36 enrolled (22.2%)) was 8 subjects and the “TESAEs, SOC cardiac disorders” value ([1]; of 36 enrolled (22.2%)) was 8 subjects. The “subjects with TEAE severity moderate” value ([1]; of 36 enrolled (25.0%)) was 9 subjects, the “subjects with TEAE severity mild” value ([1]; of 36 enrolled (27.8%)) was 10 subjects and the “subjects with TEAE severity severe” value ([1]; of 36 enrolled (36.1%)) was 13 subjects. The “subjects with TEAEs considered related to the study drug” value ([1]; of 36 enrolled (41.7%)) was 15 subjects, the “subjects with TEAEs, SOC Cardiac disorders” value ([1]; of 36 enrolled (47.2%)) was 17 subjects and the “subjects with TEAEs, SOC Infections and Infestations” value ([1]; of 36 enrolled (47.2%)) was 17 subjects. For the same compound, the “subjects with serious TEAEs (TESAEs)” value ([1]; of 36 enrolled (55.6%)) was 20 subjects, the “subjects with TEAEs” value ([1]; of 36 enrolled (88.9%)) was 32 subjects and the overall safety assessment ([1]; third safety review, as of 4 Nov. 2020) was “no safety trends or signals”. For the same compound, the “serious TEAEs considered related” value ([1]; two of 36 enrolled) was 5.6%, the “fall in CVP with exercise” value [2, 4] was 30% and the “fall in exercise PCWP” value [2, 4] was 33%. For the same compound, the “fall in resting CVP” value [2, 4] was 33%, the “fall in resting PCWP” value [2, 4] was 40% and the CVP at rest ([2]; following 24 hours of i.v. levosimendan (baseline 18 mmHg)) was 12 mmHg. It also gave a CVP with exercise ([2]; following 24 hours of i.v. levosimendan (baseline 30 mmHg)) of 21 mmHg, a PCWP at rest ([2]; following 24 hours of i.v. levosimendan (baseline 35 mmHg)) of 21 mmHg and a PCWP with exercise ([2]; following 24 hours of i.v. levosimendan (baseline 55 mmHg)) of 37 mmHg. For the same compound, the “pulmonary capillary wedge pressure (PCWP) after levosimendan administration (FIG. 3)” value ([2]; single 24-hour open label lead-in infusion) was “decrease” and the PDE3/PDE4 inhibition ratio [3] was 10,000.
